Tested on: MV-4-11 cells
Assay: Gene expression microarray analysis (Affymetrix PrimeView) and GSEA
Assay type: cell-based, human
Design: RFU PODN (11730768_x_at) / Fold change /veh PODN (11730768_x_at) / RFU LINC00158 (11744669_a_at) / Fold change /veh LINC00158 (11744669_a_at) / RFU DUSP10 (11751237_a_at) / Fold change /veh DUSP10 (11751237_a_at) / RFU ID3 (11757404_x_at) / Fold change /veh ID3 (11757404_x_at) / RFU PLEKHG5 (11737974_s_at) / Fold change /veh PLEKHG5 (11737974_s_at) / RFU LRRC4B (11730491_at) / Fold change /veh LRRC4B (11730491_at) / RFU GIMAP4 (11747438_a_at) / Fold change /veh GIMAP4 (11747438_a_at) / RFU KRT8 (11758183_x_at) / Fold change /veh KRT8 (11758183_x_at) / RFU CNN1 (11734310_a_at) / Fold change /veh CNN1 (11734310_a_at) / RFU VPS37D (11726825_at) / Fold change /veh VPS37D (11726825_at) / RFU C10orf10 (11716522_x_at) / Fold change /veh C10orf10 (11716522_x_at) / RFU KIR2DL2 /// KIR2DL4 /// KIR2DL5A /// KIR2DL5B /// KIR2DS1 /// KIR2DS2 /// KIR2DS3 /// KIR2DS4 /// KIR3DL3 /// KIR3DL3 /// KIR3DS1 (11738374_at) / Fold change /veh KIR2DL2 /// KIR2DL4 /// KIR2DL5A /// KIR2DL5B /// KIR2DS1 /// KIR2DS2 /// KIR2DS3 /// KIR2DS4 /// KIR3DL3 /// KIR3DL3 /// KIR3DS1 (11738374_at) / RFU C1QL1 (11718748_at) / Fold change /veh C1QL1 (11718748_at) / RFU TMPRSS4 (11747572_a_at) / Fold change /veh TMPRSS4 (11747572_a_at) / RFU HAMP (11756126_x_at) / Fold change /veh HAMP (11756126_x_at) / RFU RNFT2 (11725882_a_at) / Fold change /veh RNFT2 (11725882_a_at) / RFU NR4A2 (11747474_a_at) / Fold change /veh NR4A2 (11747474_a_at) / RFU ABCC12 (11746883_a_at) / Fold change /veh ABCC12 (11746883_a_at) / RFU TMEM136 (11760407_x_at) / Fold change /veh TMEM136 (11760407_x_at) / RFU CLDN22 /// WWC2 (11732394_at) / Fold change /veh CLDN22 /// WWC2 (11732394_at) / RFU HLA-DPB1 (11760878_x_at) / Fold change /veh HLA-DPB1 (11760878_x_at) / RFU SPINT1 (11716480_a_at) / Fold change /veh SPINT1 (11716480_a_at) / RFU GAP43 (11754022_s_at) / Fold change /veh GAP43 (11754022_s_at) / RFU A4GNT (11735810_at) / Fold change /veh A4GNT (11735810_at) / RFU PRB3 (11715151_x_at) / Fold change /veh PRB3 (11715151_x_at) / RFU TUBB4B (11761932_at) / Fold change /veh TUBB4B (11761932_at) / RFU CAPN14 (11732068_a_at) / Fold change /veh CAPN14 (11732068_a_at) / RFU TMCC2 (11721928_a_at) / Fold change /veh TMCC2 (11721928_a_at) / RFU IRGQ (11745062_a_at) / Fold change /veh IRGQ (11745062_a_at) / RFU FAM174B (11720279_a_at) / Fold change /veh FAM174B (11720279_a_at) / RFU TMPRSS4 (11748680_a_at) / Fold change /veh TMPRSS4 (11748680_a_at) / RFU FAM212B (11763350_a_at) / Fold change /veh FAM212B (11763350_a_at) / RFU PLEKHG5 (11743358_a_at) / Fold change /veh PLEKHG5 (11743358_a_at) / RFU ZSCAN30 (11745921_a_at) / Fold change /veh ZSCAN30 (11745921_a_at) / RFU CMKLR1 (11741424_a_at) / Fold change /veh CMKLR1 (11741424_a_at) / RFU LOC101060620 /// MAPK8IP1 (11723275_at) / Fold change /veh LOC101060620 /// MAPK8IP1 (11723275_at) / RFU SPTSSB (11747773_x_at) / Fold change /veh SPTSSB (11747773_x_at) / RFU PRSS12 (11739890_at) / Fold change /veh PRSS12 (11739890_at) / RFU BIN1 (11741810_x_at) / Fold change /veh BIN1 (11741810_x_at) / RFU WNT11 (11732464_a_at) / Fold change /veh WNT11 (11732464_a_at) / RFU C10orf10 (11716521_a_at) / Fold change /veh C10orf10 (11716521_a_at) / RFU C5orf56 (11738089_at) / Fold change /veh C5orf56 (11738089_at) / RFU CYB561 (11721691_x_at) / Fold change /veh CYB561 (11721691_x_at) / RFU ANKRD19P (11752326_a_at) / Fold change /veh ANKRD19P (11752326_a_at) / RFU OR2T12 /// OR2T33 /// OR2T8 (11738714_s_at) / Fold change /veh OR2T12 /// OR2T33 /// OR2T8 (11738714_s_at) / RFU VCAN (11748164_a_at) / Fold change /veh VCAN (11748164_a_at) / RFU JSRP1 (11732532_at) / Fold change /veh JSRP1 (11732532_at) / RFU KRTAP10-11 (11738290_x_at) / Fold change /veh KRTAP10-11 (11738290_x_at) / RFU MYO3A (11730013_a_at) / Fold change /veh MYO3A (11730013_a_at) / RFU EBF3 (11725865_a_at) / Fold change /veh EBF3 (11725865_a_at) / RFU CAMK2N1 (11719241_x_at) / Fold change /veh CAMK2N1 (11719241_x_at) / RFU C5orf56 (11738088_a_at) / Fold change /veh C5orf56 (11738088_a_at) / RFU OLFML3 (11715873_a_at) / Fold change /veh OLFML3 (11715873_a_at) / RFU LOC100653217 /// NTM (11731650_a_at) / Fold change /veh LOC100653217 /// NTM (11731650_a_at) / RFU MAPK11 (11762145_a_at) / Fold change /veh MAPK11 (11762145_a_at) / RFU FIZ1 (11724087_x_at) / Fold change /veh FIZ1 (11724087_x_at) / RFU OASL (11726364_x_at) / Fold change /veh OASL (11726364_x_at) / RFU SOX15 (11748057_x_at) / Fold change /veh SOX15 (11748057_x_at) / RFU CD79A (11719716_a_at) / Fold change /veh CD79A (11719716_a_at) / RFU HIST1H1D (11736915_at) / Fold change /veh HIST1H1D (11736915_at) / RFU CASKIN2 (11723855_a_at) / Fold change /veh CASKIN2 (11723855_a_at) / RFU LOC730098 (11760151_x_at) / Fold change /veh LOC730098 (11760151_x_at) / RFU OR4N2 (11742367_at) / Fold change /veh OR4N2 (11742367_at) / RFU PRRT2 (11749266_a_at) / Fold change /veh PRRT2 (11749266_a_at) / RFU SNX32 (11753110_a_at) / Fold change /veh SNX32 (11753110_a_at) / RFU CDHR5 (11726645_a_at) / Fold change /veh CDHR5 (11726645_a_at) / RFU RCAN1 (11760418_a_at) / Fold change /veh RCAN1 (11760418_a_at) / RFU FAM167A (11723789_a_at) / Fold change /veh FAM167A (11723789_a_at) / RFU FAM26E (11764081_at) / Fold change /veh FAM26E (11764081_at) / RFU ISYNA1 (11749810_s_at) / Fold change /veh ISYNA1 (11749810_s_at) / RFU ACY1 (11761880_at) / Fold change /veh ACY1 (11761880_at) / RFU 11764098_at / Fold change /veh 11764098_at / RFU SAMD14 (11745864_x_at) / Fold change /veh SAMD14 (11745864_x_at) / RFU NPB (11741838_a_at) / Fold change /veh NPB (11741838_a_at) / RFU TMPRSS6 (11731388_a_at) / Fold change /veh TMPRSS6 (11731388_a_at) / RFU KRTAP10-2 (11738614_at) / Fold change /veh KRTAP10-2 (11738614_at) / RFU ARHGAP8 /// PRR5-ARHGAP8 (11727945_x_at) / Fold change /veh ARHGAP8 /// PRR5-ARHGAP8 (11727945_x_at) / RFU KRTAP5-7 /// NADSYN1 (11734609_at) / Fold change /veh KRTAP5-7 /// NADSYN1 (11734609_at) / RFU RASL12 (11751679_a_at) / Fold change /veh RASL12 (11751679_a_at) / RFU CDKN2B (11736163_a_at) / Fold change /veh CDKN2B (11736163_a_at) / RFU PRF1 (11729649_at) / Fold change /veh PRF1 (11729649_at) / RFU, ZNF638 /// ZNF638-IT1 / Fold change vs veh, ZNF638 /// ZNF638-IT1 / RFU, PANK3 / Fold change vs veh, PANK3 / RFU, SH3YL1 / Fold change vs veh, SH3YL1 / RFU, ZEB2 / Fold change vs veh, ZEB2 / RFU, NRIP1 / Fold change vs veh, NRIP1 / RFU, PTTG1IP / Fold change vs veh, PTTG1IP / RFU, CAPN2 / Fold change vs veh, CAPN2 / RFU, MED14 / Fold change vs veh, MED14 / RFU, SNORA58 / Fold change vs veh, SNORA58 / RFU, C1orf63 / Fold change vs veh, C1orf63 / RFU, LRRFIP1 / Fold change vs veh, LRRFIP1 / RFU, NDUFAF7 / Fold change vs veh, NDUFAF7 / RFU, SLC12A2 / Fold change vs veh, SLC12A2 / RFU, IBTK / Fold change vs veh, IBTK / RFU, ESF1 / Fold change vs veh, ESF1 / Fold change vs veh, TMEM50B / RFU, TAOK1 / Fold change vs veh, TAOK1 / RFU, ACBD3 / Fold change vs veh, ACBD3 / RFU, TMA16 / Fold change vs veh, TMA16 / RFU, RWDD3 / Fold change vs veh, RWDD3 / RFU, BCAT1 / Fold change vs veh, BCAT1 / RFU, EDEM3 / Fold change vs veh, EDEM3 / RFU, TMEM33 / Fold change vs veh, TMEM33 / RFU, WDR75 / Fold change vs veh, WDR75 / RFU, AHCTF1 / Fold change vs veh, AHCTF1 / RFU, TFRC / Fold change vs veh, TFRC / RFU, ZDHHC17 / Fold change vs veh, ZDHHC17 / RFU, NOM1 / Fold change vs veh, NOM1 / RFU, ARL8B / Fold change vs veh, ARL8B / RFU, ZBTB11 / Fold change vs veh, ZBTB11 / RFU, TAMM41 / Fold change vs veh, TAMM41 / RFU, KIAA1704 /// LOC100996395 / Fold change vs veh, KIAA1704 /// LOC100996395 / RFU, ING1 / Fold change vs veh, ING1 / RFU, TRMT61B / Fold change vs veh, TRMT61B / RFU, FUBP3 / Fold change vs veh, FUBP3 / RFU, TP53 / Fold change vs veh, TP53 / RFU, TNKS2 / Fold change vs veh, TNKS2 / RFU, ZFP14 / Fold change vs veh, ZFP14 / RFU, ACTR2 / Fold change vs veh, ACTR2 / RFU, PPP3R1 / Fold change vs veh, PPP3R1 / RFU, PIK3R1 / Fold change vs veh, PIK3R1 / RFU, HNRNPA1 / Fold change vs veh, HNRNPA1 / RFU, RNF170 / Fold change vs veh, RNF170 / RFU, ZNF28 / Fold change vs veh, ZNF28 / RFU, RNGTT / Fold change vs veh, RNGTT / RFU, OGT / Fold change vs veh, OGT / RFU, BRD1 / Fold change vs veh, BRD1 / RFU, MARS / Fold change vs veh, MARS / RFU, ZNF655 / Fold change vs veh, ZNF655 / RFU, FAHD1 / Fold change vs veh, FAHD1 / RFU, BDP1 / Fold change vs veh, BDP1 / RFU, LRRCC1 / Fold change vs veh, LRRCC1 / RFU, ARID1A / Fold change vs veh, ARID1A / RFU, ZNF146 / Fold change vs veh, ZNF146 / RFU, ZNF330 / Fold change vs veh, ZNF330 / RFU, GPN3 / Fold change vs veh, GPN3 / RFU, C9orf123 / Fold change vs veh, C9orf123 / RFU, N4BP2L2 / Fold change vs veh, N4BP2L2 / RFU, ARFIP1 / Fold change vs veh, ARFIP1 / RFU, FAM179B / Fold change vs veh, FAM179B / RFU, BCL10 / Fold change vs veh, BCL10 / RFU, UHRF1BP1L / Fold change vs veh, UHRF1BP1L / RFU, BET1 / Fold change vs veh, BET1 / RFU, CNOT2 / Fold change vs veh, CNOT2 / RFU, ZNF268 / Fold change vs veh, ZNF268 / Fold change vs veh, ZNF507 / RFU, DGCR2 / Fold change vs veh, DGCR2 / RFU, WDSUB1 / Fold change vs veh, WDSUB1 / Fold change vs veh, HSP90B1 /// MIR3652 / RFU, ADSS / Fold change vs veh, ADSS / RFU, GK / Fold change vs veh, GK / RFU, ZNF148 / Fold change vs veh, ZNF148 / RFU, TAF9 / Fold change vs veh, TAF9 / RFU, SLC1A5 / Fold change vs veh, SLC1A5 / RFU, SLMO2 / Fold change vs veh, SLMO2 / RFU, ABCC4 / Fold change vs veh, ABCC4 / RFU, LOC101060439 /// RAP1B / Fold change vs veh, LOC101060439 /// RAP1B / RFU, RFX7 / Fold change vs veh, RFX7 / RFU, GTPBP10 / Fold change vs veh, GTPBP10 / RFU, CNEP1R1 / Fold change vs veh, CNEP1R1 / RFU, BIVM-ERCC5 /// ERCC5 / Fold change vs veh, BIVM-ERCC5 /// ERCC5 / RFU, ILF3 / Fold change vs veh, ILF3 / RFU 11762660_at / Fold change /veh 11762660_at / RFU VCAN (11757783_s_at) / Fold change /veh VCAN (11757783_s_at) / RFU DDX43 (11728927_at) / Fold change /veh DDX43 (11728927_at) / RFU KRT8 (11758188_x_at) / Fold change /veh KRT8 (11758188_x_at) / RFU NKD1 (11759106_at) / Fold change /veh NKD1 (11759106_at) / RFU SRD5A1 (11742802_a_at) / Fold change /veh SRD5A1 (11742802_a_at) / RFU TPSAB1 /// TPSB2 (11721975_s_at) / Fold change /veh TPSAB1 /// TPSB2 (11721975_s_at) / RFU GSTM3 (11746129_a_at) / Fold change /veh GSTM3 (11746129_a_at) / RFU IL23R (11737362_x_at) / Fold change /veh IL23R (11737362_x_at) / RFU TMEM51 (11727254_a_at) / Fold change /veh TMEM51 (11727254_a_at) / RFU PIWIL2 (11732686_x_at) / Fold change /veh PIWIL2 (11732686_x_at) / RFU ORM1 (11744905_x_at) / Fold change /veh ORM1 (11744905_x_at) / RFU CCDC152 (11743942_at) / Fold change /veh CCDC152 (11743942_at) / RFU ECM1 (11717891_a_at) / Fold change /veh ECM1 (11717891_a_at) / RFU IL23R (11748794_a_at) / Fold change /veh IL23R (11748794_a_at) / RFU TNFAIP8L3 (11732012_x_at) / Fold change /veh TNFAIP8L3 (11732012_x_at) / RFU MBOAT4 (11741988_at) / Fold change /veh MBOAT4 (11741988_at) / RFU 11764193_at / Fold change /veh 11764193_at / RFU TMEM53 (11763286_at) / Fold change /veh TMEM53 (11763286_at) / RFU MAGEB2 (11727129_at) / Fold change /veh MAGEB2 (11727129_at) / RFU TMEM200A (11744735_a_at) / Fold change /veh TMEM200A (11744735_a_at) / RFU CCDC152 (11751479_a_at) / Fold change /veh CCDC152 (11751479_a_at) / RFU FAM211A (11726209_a_at) / Fold change /veh FAM211A (11726209_a_at) / RFU RGS16 (11746705_a_at) / Fold change /veh RGS16 (11746705_a_at) / RFU VCAN (11755009_s_at) / Fold change /veh VCAN (11755009_s_at) / RFU RHOB (11743442_s_at) / Fold change /veh RHOB (11743442_s_at) / RFU RGS16 (11720943_a_at) / Fold change /veh RGS16 (11720943_a_at) / RFU RGS16 (11720944_at) / Fold change /veh RGS16 (11720944_at) / RFU, VPS4B / Fold change vs veh, VPS4B / RFU, CREB1 / Fold change vs veh, CREB1 / RFU, DNAJC13 / Fold change vs veh, DNAJC13 / RFU, GNAQ / Fold change vs veh, GNAQ / RFU, CDK5R1 / Fold change vs veh, CDK5R1 / RFU, ZRANB3 / Fold change vs veh, ZRANB3 / RFU, CUL4A / Fold change vs veh, CUL4A / RFU, CCNY / Fold change vs veh, CCNY / RFU, UFL1 / Fold change vs veh, UFL1 / RFU, COG3 / Fold change vs veh, COG3 / RFU, DIAPH2 / Fold change vs veh, DIAPH2 / RFU, SKA2 / Fold change vs veh, SKA2 / RFU, AFF3 / Fold change vs veh, AFF3 / RFU, LMF1 / Fold change vs veh, LMF1 / RFU, IPO11 / Fold change vs veh, IPO11 / RFU, DFFB / Fold change vs veh, DFFB / RFU, FOXP1 / Fold change vs veh, FOXP1 / RFU, CARD8 / Fold change vs veh, CARD8 / RFU, STRN3 / Fold change vs veh, STRN3 / RFU, ADK / Fold change vs veh, ADK / RFU, RASSF2 / Fold change vs veh, RASSF2 / RFU, WIPF1 / Fold change vs veh, WIPF1 / RFU, LARP1B / Fold change vs veh, LARP1B / RFU, RASA1 / Fold change vs veh, RASA1 / RFU, RB1 / Fold change vs veh, RB1 / RFU, PPFIA1 / Fold change vs veh, PPFIA1 / RFU, MAT2A / Fold change vs veh, MAT2A / RFU, CCT5 / Fold change vs veh, CCT5 / RFU, WDR92 / Fold change vs veh, WDR92 / RFU, CUX1 / Fold change vs veh, CUX1 / RFU, TTC7A / Fold change vs veh, TTC7A / RFU, TMEM135 / Fold change vs veh, TMEM135 / RFU, DEPTOR / Fold change vs veh, DEPTOR / RFU, CPM / Fold change vs veh, CPM / RFU, DNAJB6 / Fold change vs veh, DNAJB6 / RFU, CACNA2D3 / Fold change vs veh, CACNA2D3 / RFU, DTX4 / Fold change vs veh, DTX4 / RFU, TFCP2 / Fold change vs veh, TFCP2 / RFU, GMCL1 /// GMCL1P1 / Fold change vs veh, GMCL1 /// GMCL1P1 / RFU, AEBP2 / Fold change vs veh, AEBP2 / RFU, SNHG1 /// SNORD22 /// SNORD25 /// SNORD26 /// SNORD27 /// SNORD28 /// SNORD29 /// SNORD31 / Fold change vs veh, SNHG1 /// SNORD22 /// SNORD25 /// SNORD26 /// SNORD27 /// SNORD28 /// SNORD29 /// SNORD31 / Fold change (Aza/veh), C12orf56 (ProbeSet 11735607_a_at) / Fold change (ACY-1035/veh), C12orf56 (ProbeSet 11735607_a_at) / Fold change (Aza/veh), FGFR1OP (ProbeSet 11751329_s_at) / Fold change (ACY-1035/veh), FGFR1OP (ProbeSet 11751329_s_at) / Fold change (Aza/veh), VPS36 (ProbeSet 11739960_a_at) / Fold change (ACY-1035/veh), VPS36 (ProbeSet 11739960_a_at) / RFU SYPL1 (11715823_x_at) / Fold change /veh SYPL1 (11715823_x_at) / RFU IGFBP7 (11715501_s_at) / Fold change /veh IGFBP7 (11715501_s_at) / RFU REEP3 (11722064_at) / Fold change /veh REEP3 (11722064_at) / RFU IGLL1 (11728026_x_at) / Fold change /veh IGLL1 (11728026_x_at): dose or concentration left out as unconfirmed
Details: ProbeSet 11744854_x_at; LIST B

Nc1ncn([C@@H]2O[C@H](CO)[C@@H](O)[C@H]2O)c(=O)n1 [azacitidine]
Fold change vs veh, ZNF28: 0.91

Source: PMC5218480 (PLoS ONE, 2017)
